Assay results from patent US10800732B2, “Substituted malonamides and their use as antibacterial drugs” (National Taiwan University, priority 2015, dated 2020).

Experiments:
[1] = system: Escherichia coli ATCC 25922; assay: MIC, Escherichia coli; assay type: cell-based; conditions: ATCC25922
[2] = system: Salmonella Typhimurium ATCC 14028; assay: MIC, Salmonella Typhimurium; assay type: cell-based; conditions: Salmonella enterica
[3] = system: S. aureus NCTC 8325; assay: Intracellular ATP leakage (ATPlite one-step); assay type: cell-based, Staphylococcus aureus; conditions: 4×MIC for 15 min
Experimental: FIG. 6. Intracellular ATP leakage of S. aureus treated with SC5005, SC5035 and antibiotics. […] Data was presented as percentage of intracellular ATP level to that of untreated bacteria cells (considered as 100%). Bars represent the mean, and error bars represent the SD (n=3). ***: p-value <0.001
To investigate whether SC5005 and SC5035 also act on bacterial cell membrane, intracellular ATP levels of S. aureus treated with SC5005, SC5035 and antibiotics for 15 min was determined by using ATPlite one-step assay kit.

Row | SMILES | MIC [1] [µg/mL] | MIC [2] [µg/mL] | intracellular ATP levels [3]
1 | O=C(Nc1ccc(Cl)c(C(F)(F)F)c1)Nc1ccc(Cl)c(C(F)(F)F)c1 [SC78] | > 64 | > 64 | 
2 | O=C(Nc1ccc(Cl)c(C(F)(F)F)c1)C(CCCl)C(=O)Nc1ccc(Cl)c(C(F)(F)F)c1 [SC5005] |  |  | significantly dropped
